Results on 15 molecules are retold here after US8933113B2 (Merck Sharp & Dohme Corp., priority 2011, dated 2015).

Where only a bound is given, the exact number is not on record here.

In the experiment the target is T1, full-length human Mineralocorticoid Receptor (MR) (Homo sapiens, UniProt P08235).
T1 construct: host or cells: PathHunter CHO-K1 cells
T1 sequence (P08235 1-984): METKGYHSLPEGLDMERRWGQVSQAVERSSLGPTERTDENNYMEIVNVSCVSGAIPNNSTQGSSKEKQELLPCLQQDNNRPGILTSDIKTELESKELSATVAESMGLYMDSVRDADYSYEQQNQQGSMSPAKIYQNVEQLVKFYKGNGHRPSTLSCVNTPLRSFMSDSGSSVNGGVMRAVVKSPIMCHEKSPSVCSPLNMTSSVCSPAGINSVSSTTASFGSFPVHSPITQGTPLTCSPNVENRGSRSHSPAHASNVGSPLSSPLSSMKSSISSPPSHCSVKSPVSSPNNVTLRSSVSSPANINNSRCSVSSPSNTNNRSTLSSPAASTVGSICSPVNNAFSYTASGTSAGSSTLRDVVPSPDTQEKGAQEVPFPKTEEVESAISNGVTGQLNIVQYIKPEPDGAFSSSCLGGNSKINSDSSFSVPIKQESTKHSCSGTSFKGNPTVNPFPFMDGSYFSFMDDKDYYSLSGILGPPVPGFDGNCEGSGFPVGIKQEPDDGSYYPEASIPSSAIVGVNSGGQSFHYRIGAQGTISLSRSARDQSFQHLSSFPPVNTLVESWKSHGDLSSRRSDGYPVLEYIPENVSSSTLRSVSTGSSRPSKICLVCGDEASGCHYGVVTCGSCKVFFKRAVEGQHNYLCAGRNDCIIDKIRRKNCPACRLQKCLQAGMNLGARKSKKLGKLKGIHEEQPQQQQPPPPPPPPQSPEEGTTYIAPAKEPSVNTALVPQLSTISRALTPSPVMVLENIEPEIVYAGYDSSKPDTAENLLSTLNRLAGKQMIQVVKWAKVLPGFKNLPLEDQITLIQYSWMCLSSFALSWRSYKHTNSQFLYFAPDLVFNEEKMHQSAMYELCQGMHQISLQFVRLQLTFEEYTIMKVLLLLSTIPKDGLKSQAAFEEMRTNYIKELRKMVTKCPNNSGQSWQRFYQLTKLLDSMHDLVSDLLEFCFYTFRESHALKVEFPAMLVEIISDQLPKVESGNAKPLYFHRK
The experiment is described as follows: human MR NH Pro assay (PathHunter Protein:Protein interaction assay), MR antagonist activity. It counts as cell-based. The conditions noted are these: PathHunter CHO-K1 cells overexpressing human MR; aldosterone about 0.3 nM; 6 hours at 37° C.; luminescence; read-out: Primary Assay IP rating (IP = inflection point for a given dose-response titration curve). Put shortly: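 PathHunter enzyme-complementation assay in cells of full-length human MR recruitment of a coactivator peptide, run in antagonist mode against aldosterone at about 0.3 to 1.0 nM final. Compounds are in a 10-point, 1:3 series from a 4.4 mM top. Incubation is 6 h at 37° C, then detection reagent for 1 h at RT, with a luminescence read-out.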
As to `CCC(c1ccc(Cl)cc1)(C(C)N)n1ccc2c(NS(C)(=O)=O)cccc21` (single isomer, unassigned) [Compound 176, N-(1-(2-amino-3-(4-chlorophenyl)pentan-3-yl)-1H-indol-4-yl)methanesulfonamide], the IC50 was less than 100 nM. As to `CCC(c1ccc(Cl)cc1)(n1ncc2c(NS(=O)(=O)NC)cccc21)C(C)(C)O` (stereo not drawn) [Compound 94], the IC50 is less than 100 nM. With `CCC(C=C(C)C#N)(c1ccc(Cl)cc1)n1ccc2c(NS(C)(=O)=O)cccc21` (mixture of isomers) [Compound 131, N-(1-(3-(4-chlorophenyl)-5-cyanohex-4-en-3-yl)-1H-indol-4-yl)methanesulfonamide], the IC50 was less than 100 nM. As to `CC[C@](C(N)=O)(c1ccc(Cl)cc1)n1ccc2c(NS(C)(=O)=O)cccc21` [Compound 40, (R)-2-(4-chlorophenyl)-2-{4-[(methylsulfonyl)amino]-1H-indol-1-yl}butanamide], the IC50 was in the range of 100 to 500 nM. For `CCC(C(C)=O)(c1ccc(C(F)(F)F)cc1)n1ccc2c(NS(C)(=O)=O)cccc21` (single isomer, unassigned) [Compound 102, N-(1-(2-oxo-3-(4-(trifluoromethyl)phenyl)pentan-3-yl)-1H-indol-4-yl)methanesulfonamide], the IC50 is 100 to 500 nM.

Consider `CCC(c1ccc(Cl)cc1)(c1nc(C#N)no1)n1ncc2c(NS(C)(=O)=O)cccc21` (stereo not drawn) [Compound 158, N-(1-(1-(4-chlorophenyl)-1-(3-cyano-1,2,4-oxadiazol-5-yl)propyl)-1H-indazol-4-yl)methane sulfonamide], for which the IC50 is less than 100 nM. Take `CCC(CO)(c1ccc(Cl)cc1)n1ccc2c(NS(C)(=O)=O)cc(F)cc21` (stereo not drawn) [Compound 85, N-(1-(2-(4-chlorophenyl)-1-hydroxybutan-2-yl)-6-fluoro-1H-indol-4-yl)methanesulfonamide]: the IC50 lay within 100 to 500 nM.

With `CC[C@](C#N)(c1ccc(Cl)cc1)n1ccc2c(NS(C)(=O)=O)cccc21` [Compound 5a, (R)—N-{1-[1-(4-chlorophenyl)-1-cyanopropyl]-1H-indol-4-yl}methanesulfonamide], the IC50 was less than 100 nM. On to `CCC(CCSC)(c1ccc(Cl)cc1)n1ccc2c(NS(C)(=O)=O)cccc21` (stereo not drawn) [Compound 166, N-(1-(3-(4-chlorophenyl)-1-(methylthio)pentan-3-yl)-1H-indol-4-yl)methanesulfonamide], for which the IC50 is less than 100 nM. As for `C=CCC(C(=O)OC)(c1ccc(Cl)cc1)n1ccc2c(NS(C)(=O)=O)cccc21` (stereo not drawn) [Compound 33, Methyl 2-(4-chlorophenyl)-2-{4-[(methylsulfonyl)amino]-1H-indol-1-yl}pent-4-enoate], the IC50 fell in the range of 100 to 500 nM.

For `CCC(c1ccc(Cl)cc1)(c1nc(C)no1)n1ccc2c(NS(C)(=O)=O)cccc21` (single isomer, unassigned) [Compound 150, N-(1-(1-(4-chlorophenyl)-1-(3-methyl-1,2,4-oxadiazol-5-yl)propyl)-1H-indol-4-yl)methanesulfonamide], the IC50 was less than 100 nM. `CCC(/C=C/C#N)(c1ccc(Cl)cc1)n1ccc2c(NS(C)(=O)=O)cccc21` (stereo not drawn) [Compound 127, (E)-N-(1-(3-(4-chlorophenyl)-1-cyanopent-1-en-3-yl)-1H-indol-4-yl)methanesulfonamide]: the IC50 was less than 100 nM. Turning to `CCC(c1ccc(C(F)(F)F)cc1)(C(C)O)n1ccc2c(NS(C)(=O)=O)cccc21` (single isomer, unassigned) [Compound 113, N-(1-(2-hydroxy-3-(4-(trifluoromethyl)phenyl)pentan-3-yl)-1H-indol-4-yl)methanesulfonamide], the IC50 was less than 100 nM. In the case of `COC(=O)C(c1ccc(F)cc1Cl)n1ccc2cccc(OCc3ccccc3)c21` (stereo not drawn) [Compound 16, methyl [7-(benzyloxy)-1H-indol-1-yl](2-chloro-4-fluorophenyl)acetate], the IC50 is 500 to 5000 nM. Consider `CCC(c1ccc(Cl)cc1)(n1ccc2c(NS(C)(=O)=O)cccc21)C1(O)CC1` (stereo not drawn) [Compound 154, N-(1-(1-(4-chlorophenyl)-1-(1-hydroxycyclopropyl)propyl)-1H-indol-4-yl)methanesulfonamide], for which the IC50 is less than 100 nM.
